Measurements as given in article PMC3644560 (Journal of the American Chemical Society, 2013).

Assays:
E. coli IspH [1] = target: T1, E. coli IspH (Escherichia coli, UniProt P62623); assay: Spectrophotometric IspH assay; format: biochemical; conditions: for substrate for IspH (NADPH consumption at 340 nm): 200 μM compound, IspH 0.5 μM, anaerobic, pH 8
E. coli IspH [2] = target: T1, E. coli IspH; format: biochemical
E. coli IspH [3] = target: T1, E. coli IspH; assay: IspH inhibition assay using [3-14C]HMBPP and the NADPH/FpR1/FldA reducing system; format: biochemical; conditions: steady-state studies with [3-14C]HMBPP and NADPH/FpR1/FldA
Aquifex aeolicus IspH = conditions: Aquifex aeolicus enzyme, DT-reduced MV ref 26; cited from earlier work
[4] = fit of kapp vs [AMBPP] to Eqn 2, mechanism A, pH 8, 37 °C

T1 sequence (P62623 whole entry): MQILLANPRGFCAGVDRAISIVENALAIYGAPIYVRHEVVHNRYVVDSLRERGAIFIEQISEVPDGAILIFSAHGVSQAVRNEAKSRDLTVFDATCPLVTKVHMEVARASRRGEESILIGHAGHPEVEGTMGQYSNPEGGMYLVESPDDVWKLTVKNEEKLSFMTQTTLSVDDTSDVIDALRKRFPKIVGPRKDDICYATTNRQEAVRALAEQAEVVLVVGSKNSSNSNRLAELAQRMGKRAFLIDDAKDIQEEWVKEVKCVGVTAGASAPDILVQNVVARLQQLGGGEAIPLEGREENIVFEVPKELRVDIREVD

SMILES	Ki (E. coli IspH [1])	substrate for IspH (NADPH consumption at 340 nm) (E. coli IspH [1])	effect of pH on inhibition constant and rate of binding to IspH (E. coli IspH [1]; Figures S5 and S6)	k3 (rate constant of formation of the EI complex) (E. coli IspH [1]; [4])	k4 (rate constant of dissociation of the EI complex) (E. coli IspH [1]; [4])	IC50 (E. coli IspH [2])	mode of inhibition (E. coli IspH [3])	IC50 (Aquifex aeolicus IspH)
C/C(=C\COP(=O)(O)OP(=O)(O)O)CN.N.N [AMBPP, (E)-4-Amino-3-methylbut-2-enyl 1-diphosphate bis ammonium salt]	0.054 ± 0.019 µM	not substrates for IspH	decrease as pH increases	41000 M⁻¹ s⁻¹	0.0022 s⁻¹	0.15 ± 0.02 µM	competitive inhibition was confirmed	
C#CCCOP(=O)(O)OP(=O)(O)O [3-butynyl diphosphate]								0.45 µM
C/C(=C\COP(=O)(O)OP(=O)(O)O)CS.N.N [TMBPP, (E)-4-Mercapto-3-methyl-but-2-en-1-yl diphosphate bis ammonium salt]		not substrates for IspH				0.21 ± 0.01 µM	competitive inhibitor	
